According to ChEMBL document CHEMBL1201862, “PubChem BioAssay data set” (2004):
Active and inactive are the calls of the source.

Columns and labels:
Cytochrome P450 1A2 = target: T1, Cytochrome P450 1A2 (Homo sapiens, UniProt P05177);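 note: PubChem cytochrome P450 panel assay, CYP1A2 panel member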
T1 sequence (P05177 whole entry): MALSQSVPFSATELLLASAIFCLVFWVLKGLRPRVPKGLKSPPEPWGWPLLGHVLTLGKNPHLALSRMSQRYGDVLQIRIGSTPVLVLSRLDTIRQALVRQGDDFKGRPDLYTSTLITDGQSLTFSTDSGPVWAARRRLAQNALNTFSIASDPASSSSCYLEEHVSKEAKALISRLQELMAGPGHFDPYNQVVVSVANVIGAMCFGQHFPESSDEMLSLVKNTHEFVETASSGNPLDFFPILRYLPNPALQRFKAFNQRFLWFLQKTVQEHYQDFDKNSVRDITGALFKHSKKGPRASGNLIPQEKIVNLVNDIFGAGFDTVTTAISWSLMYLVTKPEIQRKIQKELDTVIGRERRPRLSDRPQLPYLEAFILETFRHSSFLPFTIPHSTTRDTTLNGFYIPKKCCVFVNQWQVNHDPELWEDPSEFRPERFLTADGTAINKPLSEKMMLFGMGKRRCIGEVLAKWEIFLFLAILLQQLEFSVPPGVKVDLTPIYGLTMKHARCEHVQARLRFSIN

Cytochrome P450 2C9 = Cytochrome P450 2C9 (Homo sapiens, UniProt P11712)
[1] = viability of uninfected HEp-2 cells – cell-based, HTS, cytotoxicity control for RSV inhibitor project, dose response (AID 2410); format: functional; conditions: human respiratory syncytial virus
Cytochrome P450 2C19 = Cytochrome P450 2C19 (Homo sapiens, UniProt P33261); test: Cytochrome panel assay with activity outcomes. Panel member name: p450-cyp2c19 Compounds with AC50 equal or less than 10 uM are considered active; format: functional
Paired box protein Pax-8 = Paired box protein Pax-8 (Homo sapiens, UniProt Q06710); test: PAX8 transcriptional activity inhibition in RMG-I – RMG-I cells, luciferase, cherry-pick, dose response (AID 687027); format: functional, cell-based;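 note: luciferase reporter driven by Pax8 target thyroperoxidase promoter measured by SteadyGlo luminescence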
Cytochrome P450 3A4 = Cytochrome P450 3A4 (Homo sapiens, UniProt P08684);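 note: CYP3A4 tested as one member of a cytochrome P450 panel screen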
[2] = Luminescence Cell-Based Dose Retest to Confirm Inhibitors of Cancer Stem Cells. [Related pubchem assays (depositor defined):AID2717, AID2721]; format: functional; conditions: Homo sapiens

Cytochrome P450 2C9, sequence (P11712 whole entry): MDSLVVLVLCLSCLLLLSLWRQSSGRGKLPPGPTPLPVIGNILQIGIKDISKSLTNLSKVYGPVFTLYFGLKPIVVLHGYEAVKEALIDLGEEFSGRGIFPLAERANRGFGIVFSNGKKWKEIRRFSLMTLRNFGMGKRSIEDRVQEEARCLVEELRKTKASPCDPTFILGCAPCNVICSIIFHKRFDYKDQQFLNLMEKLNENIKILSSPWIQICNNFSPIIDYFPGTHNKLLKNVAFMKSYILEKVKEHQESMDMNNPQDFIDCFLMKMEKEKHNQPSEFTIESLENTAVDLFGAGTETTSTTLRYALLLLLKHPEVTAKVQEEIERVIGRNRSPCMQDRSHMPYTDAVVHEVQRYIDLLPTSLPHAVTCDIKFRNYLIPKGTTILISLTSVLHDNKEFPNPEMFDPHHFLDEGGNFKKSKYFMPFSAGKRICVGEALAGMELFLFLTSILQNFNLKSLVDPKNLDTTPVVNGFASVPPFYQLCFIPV
Cytochrome P450 2C19, sequence (P33261 whole entry): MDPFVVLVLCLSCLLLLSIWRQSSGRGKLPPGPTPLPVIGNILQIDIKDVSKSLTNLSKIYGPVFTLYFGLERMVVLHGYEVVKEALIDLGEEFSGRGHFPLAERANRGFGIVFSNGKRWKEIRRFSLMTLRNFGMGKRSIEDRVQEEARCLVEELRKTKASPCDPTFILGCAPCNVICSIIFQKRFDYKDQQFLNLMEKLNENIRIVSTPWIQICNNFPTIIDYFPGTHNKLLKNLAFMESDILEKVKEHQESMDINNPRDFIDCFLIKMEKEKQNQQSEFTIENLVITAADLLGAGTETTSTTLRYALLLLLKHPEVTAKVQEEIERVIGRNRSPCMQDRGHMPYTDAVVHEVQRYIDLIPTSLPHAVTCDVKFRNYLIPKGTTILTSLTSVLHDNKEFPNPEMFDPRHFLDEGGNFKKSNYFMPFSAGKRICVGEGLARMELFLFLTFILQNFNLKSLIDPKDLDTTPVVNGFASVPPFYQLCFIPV
Cytochrome P450 3A4, sequence (P08684 whole entry): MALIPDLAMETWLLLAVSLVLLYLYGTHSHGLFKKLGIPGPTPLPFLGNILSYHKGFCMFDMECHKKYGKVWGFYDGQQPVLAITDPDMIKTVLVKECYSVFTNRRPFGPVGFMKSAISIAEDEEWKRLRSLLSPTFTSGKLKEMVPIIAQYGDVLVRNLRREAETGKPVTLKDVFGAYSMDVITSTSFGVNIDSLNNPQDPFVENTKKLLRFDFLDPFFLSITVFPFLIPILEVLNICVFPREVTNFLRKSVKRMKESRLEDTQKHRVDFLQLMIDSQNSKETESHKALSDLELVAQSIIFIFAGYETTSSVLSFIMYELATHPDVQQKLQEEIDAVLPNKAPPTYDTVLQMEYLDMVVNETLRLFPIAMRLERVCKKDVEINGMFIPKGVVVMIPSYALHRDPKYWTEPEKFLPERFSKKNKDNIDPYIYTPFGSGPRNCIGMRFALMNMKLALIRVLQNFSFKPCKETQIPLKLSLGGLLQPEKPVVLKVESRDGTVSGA
Paired box protein Pax-8, sequence (Q06710 whole entry): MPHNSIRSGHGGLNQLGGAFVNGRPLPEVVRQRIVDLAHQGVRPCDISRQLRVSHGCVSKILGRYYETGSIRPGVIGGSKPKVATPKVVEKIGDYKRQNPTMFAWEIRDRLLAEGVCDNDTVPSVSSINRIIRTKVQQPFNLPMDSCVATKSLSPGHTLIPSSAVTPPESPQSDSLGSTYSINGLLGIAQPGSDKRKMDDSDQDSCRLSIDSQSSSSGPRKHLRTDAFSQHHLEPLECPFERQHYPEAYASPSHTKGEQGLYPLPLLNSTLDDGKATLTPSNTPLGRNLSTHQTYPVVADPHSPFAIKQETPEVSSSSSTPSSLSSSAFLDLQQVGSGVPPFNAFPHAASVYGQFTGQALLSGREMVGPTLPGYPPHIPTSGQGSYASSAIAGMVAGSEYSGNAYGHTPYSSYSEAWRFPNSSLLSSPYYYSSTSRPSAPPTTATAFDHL

CCCCC1=NN2C(=N)CC(=O)N=C2S1
AC50 (Cytochrome P450 1A2): 25.1 µM (inconclusive) | AC50 (Cytochrome P450 2C9): 2.51 µM (inconclusive)

N#CC1(c2ccc(NC(=O)c3ccccc3F)cc2)CCCC1
CC50 [1]: > 50 µM (active)

O=C(Nc1ccc(N2CCCCC2)c(Cl)c1)c1nc[nH]n1
CC50 [1]: 16.6 µM (active)

CN(Cc1ccco1)c1ccnc(-c2ccoc2)n1
AC50 (Cytochrome P450 2C19; read-out: AC50): 25.1 µM (inconclusive)

COc1ccc(-c2nn(-c3ccccc3)cc2/C=N/NS(=O)(=O)c2ccccc2)cc1
CC50 [1]: 17.8 µM (active)

O=C1NN=C(c2ccc(Cl)cc2)CC1c1cccc(Cl)c1 (centres undefined)
CC50 [1]: 30.2 µM (active)

O=C(O)/C=C\c1ccc(Cn2ccnc2)cc1
AC50 (Cytochrome P450 1A2): 12.6 µM (inconclusive)

Cc1ccc(NC(S)=NCc2ccc3[nH]c4c(c3c2)CCCC4)cc1
CC50 [1]: 9.29 µM (active)

CCCn1nc(Oc2nc(NCC)nc(NCC)n2)ccc1=O
AC50 (Cytochrome P450 2C19; read-out: AC50): 31.6 µM (inconclusive) | AC50 (Cytochrome P450 1A2): 15.8 µM (inconclusive)

CCCCn1cnc2c(cnn2-c2ccc(F)cc2)c1=O
AC50 (Cytochrome P450 2C19; read-out: AC50): 2.51 µM (inconclusive)

C[C@@H]1CN([C@H](C)CO)C(=O)c2cc(NC(=O)Nc3ccc(C(F)(F)F)cc3)ccc2O[C@@H](C)CCCCO[C@H]1CN(C)S(=O)(=O)c1ccc(F)cc1
AC50 (Paired box protein Pax-8): 6.53 µM (active)

COc1ccccc1N1CCN(C(=O)c2sc3ncnc(N4CCN(c5ccccn5)CC4)c3c2C)CC1
CC50 [1]: 12.2 µM (active)

COCCn1c(=O)c(-c2ccc(F)cc2)nc2cnc(Nc3cccc(OC)c3)nc21
AC50 (Cytochrome P450 1A2): 3.16 µM (inconclusive)

Cc1cccc(NC(=NS(=O)(=O)c2ccccc2)C(F)(F)F)c1
AC50 (Cytochrome P450 2C19; read-out: AC50): 22.4 µM (inconclusive) | AC50 (Cytochrome P450 3A4): 25.1 µM (inconclusive)

CCC(C)Nc1nc(OCC(F)(F)F)nc(OCC(F)(F)F)n1 (centres undefined)
AC50 (Cytochrome P450 2C19; read-out: AC50): 3.16 µM (inconclusive)

C[C@@H](CN1CCC(Cc2ccccc2)CC1)[C@H](O)c1ccc(O)cc1
AC50 (Cytochrome P450 1A2): 12.6 µM (inconclusive)

Cc1nnc(-c2cnn(-c3ccccc3)c2N)n1Cc1ccncc1
AC50 (Cytochrome P450 2C19; read-out: AC50): 11.2 µM (inconclusive) | AC50 (Cytochrome P450 1A2): 11.2 µM (inconclusive) | AC50 (Cytochrome P450 3A4): 15.8 µM (inconclusive)

O=C(c1ccco1)N1CCC2(CCCN(c3ccccn3)C2)CC1
AC50 (Cytochrome P450 1A2): 10 µM (inconclusive) | AC50 (Cytochrome P450 3A4): 15.8 µM (inconclusive)

C[C@@H]1CCCCO[C@H](CN(C)C(=O)C2CCCCC2)[C@@H](C)CN([C@@H](C)CO)C(=O)c2cc(NC(=O)Nc3ccccc3)ccc2O1
AC50 (Paired box protein Pax-8): 5.39 µM (active)

O=C(Nc1cccc2ncccc12)c1cccc(F)c1
AC50 (Cytochrome P450 1A2): 15.8 µM (inconclusive) | AC50 (Cytochrome P450 3A4): 22.4 µM (inconclusive)

CN(Cc1c(F)cccc1Cl)C(=O)CCc1c[nH]c2ccccc12
CC50 [1]: 30 µM (active)

COC(=O)N1CCC2(CCCN(c3ccncc3)C2)CC1
AC50 (Cytochrome P450 2C19): inconclusive

Cn1c(SCc2ccccc2Cl)nc2c1c(=O)[nH]c(=O)n2C
CC50 [1]: > 50 µM (active)

CCc1ccccc1S(=O)(=O)Cc1ccc(C(=O)N2CCN(c3ccccc3OC)CC2)o1
CC50 [1]: > 50 µM (active)

C/C(N)=C(/C#N)C(=O)CSc1nnc(COc2cc(C)ccc2C)o1
AC50 (Cytochrome P450 1A2): 4.47 µM (inconclusive) | AC50 (Cytochrome P450 2C9): 7.08 µM (inconclusive)

COc1ccc(-n2c(=O)c(C)nc3cnc(Nc4ccccc4)nc32)cc1
AC50 (Cytochrome P450 1A2): 5.01 µM (inconclusive) | AC50 (Cytochrome P450 2C9): 20 µM (inconclusive)

CCOC(=O)CSc1nnc(Cc2cc(O)nc(O)n2)n1-c1cccc(OC)c1
AC50 (Cytochrome P450 2C19): inconclusive | AC50 (Cytochrome P450 3A4): 22.4 µM (inconclusive)

COCCNC(=O)C(c1ccc(C)o1)N(CC1CCCO1)C(=O)Cn1nnc2ccccc21 (centres undefined)
AC50 (Cytochrome P450 2C19): inconclusive | AC50 (Cytochrome P450 1A2): 12.6 µM (inconclusive) | AC50 (Cytochrome P450 3A4): 15.8 µM (inconclusive)

Cc1cccc(OC2(c3ccccc3)OC(=O)c3ccccc32)c1C (centres undefined)
AC50 (Cytochrome P450 1A2): 14.1 µM (inconclusive) | AC50 (Cytochrome P450 3A4): 28.2 µM (inconclusive)

CN(Cc1cc(Br)cc(Br)c1O)Cc1c(O)ccc2ccccc12
AC50 (Cytochrome P450 1A2): 1.26 µM (inconclusive) | AC50 (Cytochrome P450 3A4): 3.98 µM (inconclusive) | AC50 (Cytochrome P450 2C9): 3.16 µM (inconclusive)

CC1CCCCN1c1cc(C#N)c(C#N)cc1[N+](=O)[O-] (centres undefined)
AC50 [2]: 0.174 µM (active) | AC50 (Cytochrome P450 1A2): 3.16 µM (inconclusive) | AC50 (Cytochrome P450 3A4): 15.8 µM (inconclusive) | AC50 (Cytochrome P450 2C9): 5.01 µM (inconclusive)
